Assay [1] has as its system 51Cr-labeled P815S (HBsAg transfectant) target cells. Kind of assay: HBsAg-specific CTL response of immunized mice (51Cr-release assay). It is filed as in vivo, BALB/c mice. The settings on record: for % Specific Lysis: s.c. in PBS, boost day 21, spleen cells day 42; for antigen-specific CTL response: three s.c. injections of 50 μg at 21 day intervals, no added adjuvant.

The subject of assay [2] is human umbilical artery. The assay is described as follows: Smooth muscle contraction of human umbilical artery. The settings on record: for EC50: concentration resulting in 50% maximum contraction; for pD2 ± SE: −log EC50 (M), mean ± SE, n 3. It is filed as cell-based. As for the experimental part:
(§1) Pharmacologic assays. […] Statistical analysis of the values obtained from pharmacologic assays was performed using one-way analysis of variance (ANOVA).

The test system of assay [3] is human PMNs. Kind of assay: MPO release from human PMNs. The settings on record: for EC50: concentration resulting in 50% maximum release of myeloperoxidase; for pD2 ± SE: −log EC50 (M), mean ± SE, n 3. It is filed as cell-based. On the procedure:
as §1

Assay [4] addresses T1, C5aR (Homo sapiens, UniProt P21730).
T1 construct: endogenous in cells; host or cells: intact human PMNs (polymorphonuclear leukocytes)
T1 sequence (P21730 1-350): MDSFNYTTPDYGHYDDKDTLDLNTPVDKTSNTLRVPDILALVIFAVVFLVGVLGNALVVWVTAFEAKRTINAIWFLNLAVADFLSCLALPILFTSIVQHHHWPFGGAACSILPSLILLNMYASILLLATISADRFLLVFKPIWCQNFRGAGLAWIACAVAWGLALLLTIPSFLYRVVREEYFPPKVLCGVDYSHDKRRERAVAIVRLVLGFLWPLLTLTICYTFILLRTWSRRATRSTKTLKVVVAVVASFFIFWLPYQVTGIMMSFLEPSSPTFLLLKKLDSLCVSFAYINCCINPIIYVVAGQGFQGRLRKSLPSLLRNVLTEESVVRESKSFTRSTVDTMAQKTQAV
The assay is described as follows: Binding affinity for C5aRs on human PMNs (125I-C5a competition). As for the experimental part: Pharmacologic assays. C5a-like agonistic activity was assessed by the ability of the peptides to induce smooth muscle contraction of human umbilical artery and […] from human PMNs according to previously published methods (Sanderson et al., 1994, supra; Sanderson et al., J. Med. Chem. 38, 3669, 1995; Finch et al., J. Med. Chem. 40, 877, 1997). Full concentration-response curves were generated for individual peptides and natural C5a in each assay and the EC50 values (the concentration of peptide producing 50% of the maximal response to each peptide) were calculated. pD2 transforms [−log EC50 (M)] were calculated for each concentration-response curve and reported as the mean±SE. Peptide binding affinity to the C5aR was evaluated on intact human PMNs by a competition assay using ^125I-C5a according to previously described methods (Sanderson et al., 1995, supra; Finch et al., 1997, supra). Statistical analysis of the values obtained from pharmacologic assays was performed using one-way analysis of variance (ANOVA).

The subject of assay [5] is MUC1 epitope peptide. Kind of assay: Serum antibody response to MUC1 epitope in immunized mice (RIA). The settings on record: C57Bl6 and Balb/c mice, 100 μg i.p. with RIBI adjuvant, three immunizations, sera at 6 weeks. It is filed as in vivo. The text has this:
iii. Animal Models. The strains of mice used for this example were inbred females 6 to 12 week old C57Bl6(H-2^b) and Balb/c (H-2^d), which were obtained from Jackson labs (Bar Harbor, Me.). […] The MUC1 peptide selected for these studies contained a motif that may bind to the H-2K^b molecule of the C57Bl6 mice; therefore, a strain of mouse that lacked this class I molecule binding motif (Balb/c) was also studied to determine the relative contribution of the class I binding motif to the antigen presentation properties of these peptides.
iv. Immunization protocol. Preimmune sera were obtained from mice, which were subsequently immunized intraperitoneally with 100 μg of the indicated peptide with RIBI adjuvant (MPL+TDM+CWS) (Sigma Immunochemicals). Animals were boosted twice at two week intervals using the same injection procedure. Sera were obtained following three immunizations (at 6 weeks).
v. Analysis of serum antibody responses. For radioimmunoassay (RIA), anti-peptide antibodies were determined, before and at different time points after immunization, in 96-well microtiter plates (Dynatech Laboratories, Inc.). Plates were coated with 50 μl of a 100 μg/ml appropriate peptide in phosphate-buffered saline (PBS) pH 7.4 solution overnight at 4° C. The wells were blocked by incubation with 5% dry milk in PBS pH 7.4 for at least two hours. Anti-peptide antibody titers were determined using serial dilutions of sera. The sera were diluted with PBS containing 0.05% Tween-20, pH 7.4 (washing buffer) and 50 μl of each dilution was incubated at 37° C. for 1 hour. The wells were then drained, washed 4 times with PBS-Tween and 50 μl of ^125I-goat anti-mouse Ab (1-2×10^4 cpm/well) was added and incubated for 1 hr at 25° C. After washing, specific radioactivity was recorded in a gamma counter (1272 CliniGamma, LKB).
vi. Experimental groups. […]

In assay [6] the test system is MUC1 peptide. The assay is described as follows: MUC1-specific antibody isotype titers in immunized mice (ELISA). It is filed as in vivo. Conditions: for MUC1 specific Ab titer, IgA / MUC1 specific Ab titer, IgG1 / MUC1 specific Ab titer, IgG2a / MUC1 specific Ab titer, IgG2b / MUC1 specific Ab titer, IgG3 / MUC1 specific Ab titer, IgM: five C57BL6 mice, mean titer of responders, sera screened against MUC1 peptide.

Square brackets hold non-standard residues; d marks the D form. Ends that are not written are not given here. Peptide text beside a SMILES is read from it.

Take “IPQSLDSWWTSL [free L^d MHC class I-restricted HBsAg peptide S28-39]”: the “% Specific Lysis” value worked out at 3% in assay [1] (Effector:Target Ratio 6.25:1), 3% in assay [1] (Effector:Target Ratio 12.5:1), 5% in assay [1] (Effector:Target Ratio 25:1) and 7% in assay [1] (Effector:Target Ratio 50:1).

The term EC50 denotes the concentration needed to bring the measured effect to its halfway point. Lower therefore signals a more potent agent. One may read the IC50 as the concentration that inhibits the measured activity by half. High values mean weaker potency in that assay, low ones greater potency in that assay. Consider `CC[C@H](C)[C@H](N)C(=O)N1CCC[C@H]1C(=O)N[C@@H](CCC(N)=O)C(=O)N[C@@H](CO)C(=O)N[C@@H](CC(C)C)C(=O)N[C@@H](CC(=O)O)C(=O)N[C@@H](CO)C(=O)N[C@@H](Cc1c[nH]c2ccccc12)C(=O)N[C@@H](Cc1c[nH]c2ccccc12)C(=O)N[C@H](C(=O)N[C@@H](CO)C(=O)N[C@@H](CC(C)C)C(=O)N[C@@H](Cc1ccc(O)cc1)C(=O)N[C@@H](CO)C(=O)N[C@@H](Cc1ccccc1)C(=O)N[C@@H](CCCCN)C(=O)N1CCC[C@H]1C(=O)N[C@@H](CCSC)C(=O)N1CCC[C@H]1C(=O)N[C@@H](CC(C)C)C(=O)N[C@H](C)C(=O)N[C@@H](CCCNC(=N)N)C(=O)O)[C@@H](C)O` (H-IPQSLDSWWTSLYSFKPMPL[dA]R-OH; N-terminus assumed), for which the EC50 is 0.21 µM in assay [2], 1.58 µM in assay [3] and 3.69 µM in assay [4]. Besides, the “pD2 ± SE” value in assay [2] is given as 6.68 ± 0.17; in assay [3] it was 5.80 ± 0.04. The molecule further gave a 50% inhibitory concentration (IC50) in assay [4] of 3.72 µM. The “% Specific Lysis” value in assay [1] (Effector:Target Ratio 6.25:1) came out at 1%; in assay [1] (Effector:Target Ratio 12.5:1) it was 2%; in assay [1] (Effector:Target Ratio 25:1), 4%; in assay [1] (Effector:Target Ratio 50:1), 6%. In addition, in assay [1], the “antigen-specific CTL response” value is listed as “lack of a CTL response”.

Consider YKQGGFLGLYSFKPMPLaR [peptide 3], for which the “antibody response to MUC1 epitope (RIA)” value in assay [5] is “substantial responses were produced”. Also, in assay [6], the “MUC1 specific Ab titer, IgA” value is reported as 0; the “MUC1 specific Ab titer, IgG1” value is on record as 0; the “MUC1 specific Ab titer, IgG2a” value was found to be 1260; the “MUC1 specific Ab titer, IgG2b” value was 1780 (5/5). In assay [6], the “MUC1 specific Ab titer, IgG3” value is 0 (5/5) and the “MUC1 specific Ab titer, IgM” value is 6310 (5/5). For the same molecule, the “isotypes of the anti-peptide antibodies produced” value in assay [6] (immunized mice, FIG. 3) was “IgM, IgG2a, and IgG2b”. In assay [6] (immunized mice, FIG. 4), the “specificity of the antibody response for the MUC1 epitope” value is on record as “includes a high percentage of antibodies that are specific for the MUC1 epitope”.

On to IPQSLDSWWTSLRR, for which the “% Specific Lysis” value in assay [1] (Effector:Target Ratio 6.25:1) was 0%; in assay [1] (Effector:Target Ratio 12.5:1), 1%; in assay [1] (Effector:Target Ratio 25:1), 2%; in assay [1] (Effector:Target Ratio 50:1) it was 2%.

On to `CC[C@H](C)[C@H](N)C(=O)N1CCC[C@H]1C(=O)N[C@@H](CCC(N)=O)C(=O)N[C@@H](CO)C(=O)N[C@@H](CC(C)C)C(=O)N[C@@H](CC(=O)O)C(=O)N[C@@H](CO)C(=O)N[C@@H](Cc1c[nH]c2ccccc12)C(=O)N[C@@H](Cc1c[nH]c2ccccc12)C(=O)N[C@H](C(=O)N[C@@H](CO)C(=O)N[C@@H](CC(C)C)C(=O)N[C@@H](CCCNC(=N)N)C(=O)N[C@H](C(=O)N[C@@H](CCCNC(=N)N)C(=O)N[C@@H](CCCNC(=N)N)C(=O)N[C@@H](Cc1ccc(O)cc1)C(=O)N[C@@H](CO)C(=O)N[C@@H](Cc1ccccc1)C(=O)N[C@@H](CCCCN)C(=O)N1CCC[C@H]1C(=O)N[C@@H](CCSC)C(=O)N1CCC[C@H]1C(=O)N[C@@H](CC(C)C)C(=O)N[C@H](C)C(=O)N[C@@H](CCCNC(=N)N)C(=O)O)C(C)C)[C@@H](C)O` (H-IPQSLDSWWTSLRVRRYSFKPMPL[dA]R-OH; N-terminus assumed), for which, in assay [2], the concentration for a half-maximal effect (EC50) came to 0.18 µM and the “pD2 ± SE” value was determined as 6.67 ± 0.22. Also, in assay [3], it took 2.15 µM to reach a half-maximal effect (EC50) and the “pD2 ± SE” value is on record as 5.61 ± 0.19. In addition, in assay [4], the concentration for a half-maximal effect (EC50) worked out at 0.529 µM and the IC50 is 0.525 µM. The “antigen-specific CTL response” value in assay [1] is given as “able to elicit a specific CTL response that was significantly above background levels”.

Regarding `CC[C@H](C)[C@H](N)C(=O)N1CCC[C@H]1C(=O)N[C@@H](CCC(N)=O)C(=O)N[C@@H](CO)C(=O)N[C@@H](CC(C)C)C(=O)N[C@@H](CC(=O)O)C(=O)N[C@@H](CO)C(=O)N[C@@H](Cc1c[nH]c2ccccc12)C(=O)N[C@@H](Cc1c[nH]c2ccccc12)C(=O)N[C@H](C(=O)N[C@@H](CO)C(=O)N[C@@H](CC(C)C)C(=O)N[C@@H](CCCNC(=N)N)C(=O)N[C@@H](CCCNC(=N)N)C(=O)N[C@@H](Cc1ccc(O)cc1)C(=O)N[C@@H](CO)C(=O)N[C@@H](Cc1ccccc1)C(=O)N[C@@H](CCCCN)C(=O)N1CCC[C@H]1C(=O)N[C@@H](CCSC)C(=O)N1CCC[C@H]1C(=O)N[C@@H](CC(C)C)C(=O)N[C@H](C)C(=O)N[C@@H](CCCNC(=N)N)C(=O)NCC(=O)O)[C@@H](C)O` (H-IPQSLDSWWTSLRRYSFKPMPL[dA]RG-OH; N-terminus and C-terminus assumed), in assay [2], a half-maximal response (EC50) required 6.78 µM and the “pD2 ± SE” value worked out at 5.17 ± 0.13. In assay [3], the EC50 turned out to be 2.56 µM and the “pD2 ± SE” value is 5.59 ± 0.28. In assay [4], the response was half-maximal at 17 µM (EC50) and the IC50 is 17 µM.

In the case of `CC[C@H](C)[C@H](NC(=O)[C@H](CCCNC(=N)N)NC(=O)[C@H](CCCNC(=N)N)NC(=O)[C@H](CCCNC(=N)N)NC(=O)[C@@H](C)NC(=O)[C@H](CC(C)C)NC(=O)[C@@H]1CCCN1C(=O)[C@H](CCSC)NC(=O)[C@@H]1CCCN1C(=O)[C@H](CCCCN)NC(=O)[C@H](Cc1ccccc1)NC(=O)[C@H](CO)NC(=O)[C@@H](N)Cc1ccc(O)cc1)C(=O)N1CCC[C@H]1C(=O)N[C@@H](CCC(N)=O)C(=O)N[C@@H](CO)C(=O)N[C@@H](CC(C)C)C(=O)N[C@@H](CC(=O)O)C(=O)N[C@@H](CO)C(=O)N[C@@H](Cc1c[nH]c2ccccc12)C(=O)N[C@@H](Cc1c[nH]c2ccccc12)C(=O)N[C@H](C(=O)N[C@@H](CO)C(=O)N[C@@H](CC(C)C)C(=O)O)[C@@H](C)O` (H-YSFKPMPL[dA]RRRIPQSLDSWWTSL-OH; N-terminus and C-terminus assumed), the EC50 is 39.4 µM in assay [2], above 1000 µM in assay [3] and 465 µM in assay [4]. Moreover, the “pD2 ± SE” value was 4.41 ± 0.06 in assay [2] and above 3 in assay [3]. The concentration for half-maximal inhibition (IC50) in assay [4] is 468 µM.

For “YKQGGFLGL-KLH: MUC1 epitope conjugated to keyhole limpet hemocyanine (KLH) (also: conjugated to KLH) [reference compound]”, in assay [6], the “MUC1 specific Ab titer, IgA” value was 0; the “MUC1 specific Ab titer, IgG1” value is on record as 100 (2/5); the “MUC1 specific Ab titer, IgG2a” value is reported as 0; the “MUC1 specific Ab titer, IgG2b” value turned out to be 0. Moreover, in assay [6], the “MUC1 specific Ab titer, IgG3” value is recorded as 0 and the “MUC1 specific Ab titer, IgM” value was 5010 (4/5).

For the molecule YSFKPMPLaRKQGGFLGL [peptide 4], the “antibody response to MUC1 epitope (RIA)” value in assay [5] is “immune responses were not produced”.

In the case of YKQGGFLGL [peptide 1], the “antibody response to MUC1 epitope (RIA)” value in assay [5] is recorded as “no appreciable increase in antibody response”.

These data come from patent US20050089524A1, “Compositions and compounds for use as molecular adjuvant for a nicotine vaccine” (priority 2002, published 2005).
